Test results: article PMC4977052, “On the Utility of ToxCast™ and ToxPi as Methods for Identifying New Obesogens” (Environmental Health Perspectives, 2016)
Where two headings read alike, the source gives them in different places.

How the values were obtained:
GAL4-mPPARγ = biological target: T1, GAL4-mPPARγ (Mus musculus, UniProt P37238); experiment: GAL4-mPPARγ antagonism in competition with 50 nM rosiglitazone, transiently transfected COS7 cells; type: cell-based
T1 construct: expressed in transfected cells; host or cells: COS7
Method: pCMX-Gal4, pCMX-Gal4-mPPARγ, and pCMX-Gal4-hRXRα were previously described ([Grün et al. 2006]). Transient transfections were performed in COS7 cells as described ([Chamorro-García et al. 2012]). Briefly, COS7 cells were seeded at 15,000 cells per well in 96-well tissue culture plates in 10% calf bovine serum. The following day, cells were transfected in Opti-MEM at ~ 90% confluency. One microgram of CMX-GAL4 effector plasmid was co-transfected with 5 μg tk-(MH100)4-luciferase reporter and 5 μg of CMX-β-galactosidase transfection control plasmids in Opti-MEM® using Lipofectamine® 2000 reagent (Invitrogen™ Life Technologies, Carlsbad, CA, USA), following the manufacturer’s recommended protocol. All chemicals were solvated in dimethyl sulfoxide (DMSO). After overnight incubation, the medium was replaced with Dulbecco’s Modified Eagle Medium (DMEM; HyClone, Logan, UT, USA), 10% resin charcoal stripped fetal bovine serum (FBS) plus ligands at concentrations indicated in the figure legends for an additional 24 hr. DMSO concentration was maintained at 0.05% across all chemical treatments. Cells were lysed and assayed for luciferase and β-galactosidase activity as previously described ([Forman et al. 1995]). All transfections were performed in triplicate and reproduced in multiple experiments. Data are reported as fold induction or reduction over vehicle ([…]) controls ± SEM (standard error of the mean) using standard propagation of error ([Bevington and Robinson 2003]). […] The EC50, EC10, IC50, and IC10 values from NCGC and ToxCast™ are reported from gain AC50 and AC10 values in the ToxCast™ 2014 release ([Filer et al. 2014]).
Figure 1 ToxCast™ Chemical Activity on PPARγ. The ability of a graded dose series of ToxCast™ chemicals to (A) activate or (B) antagonize GAL4-mPPARγ was tested in transiently transfected COS7 cells. (A, B) Data points are averages of triplicate transfections (three biological replicates). […] Data are depicted as (A) fold induction or (B) reduction over vehicle (0.05% DMSO) controls ± SEM. (A) ToxCast™ chemicals were tested in 3-fold serial dilutions from 100 μM through 0.137 μM, with the final data point being 0.05% DMSO. Rosiglitazone serves as a positive control activator. (B) ToxCast™ chemicals were tested in 3-fold serial dilutions from 100 μM, in competition with 50 nM rosiglitazone (Rosi). […] (C) EC50, EC10, IC50, and IC10 values calculated from A and B are reported and compared to commercial assays (see Figure S1). Note: ATG, Attagene GAL-PPARγ activation assay; NCGC, GeneBLAzer® agonist (EC values) or antagonist (IC values) assays. Triphenyltin was previously published ([Kanayama et al. 2005]).

Human PPARγ = settings: PPARγ direct binding, NA = not active, cited from earlier work
PPARγ = test system: PPARγ; design: method as in Filer et al. 2014; settings: ref Filer et al. 2014, cited from earlier work; for AC50: PPARγ, NA = not active, read-out: NCGC Antag. AC50, 2014 Release
PPRE = test system: PPRE; design: method as in Knudsen et al. 2011; settings: ToxCast Phase I 2011 release; NA = not active; ref Knudsen et al. 2011; read-out: ATGC PPRE AC50; cited from earlier work

T1 sequence (P37238 with tags, fused parts or gaps limits assumed): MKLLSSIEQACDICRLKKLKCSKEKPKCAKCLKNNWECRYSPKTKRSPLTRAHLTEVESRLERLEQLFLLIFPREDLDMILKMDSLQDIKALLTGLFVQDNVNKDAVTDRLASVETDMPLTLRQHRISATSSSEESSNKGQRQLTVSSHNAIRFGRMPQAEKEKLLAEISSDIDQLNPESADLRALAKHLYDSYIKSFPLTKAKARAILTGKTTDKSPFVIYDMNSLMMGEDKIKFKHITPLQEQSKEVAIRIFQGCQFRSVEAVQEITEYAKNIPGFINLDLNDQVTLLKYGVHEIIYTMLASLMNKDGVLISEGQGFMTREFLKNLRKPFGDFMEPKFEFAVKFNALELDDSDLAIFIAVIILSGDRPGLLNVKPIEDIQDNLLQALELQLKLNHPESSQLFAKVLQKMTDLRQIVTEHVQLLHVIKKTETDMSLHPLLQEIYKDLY

SMILES | IC50 (GAL4-mPPARγ) [µM] | AC50 (GAL4-mPPARγ; Activation AC50 (PPARγ antagonists), Cos-7 transient transfection, competition with 50 nM rosiglitazone) [µM] | Antagonism of PPARγ (GAL4-mPPARγ; COS7, competition against 50 nM rosiglitazone) | PPARγ antagonists: IC10, Fig 1B (GAL4-mPPARγ; COS7, in competition with 50 nM rosiglitazone, computed from IC50) [µM] | Activation COS7 (result in words): PPARγ antagonist (GAL4-mPPARγ; Cos-7 transient transfection, competition with 50 nM rosiglitazone) | AC50 (Human PPARγ; ref Filer et al. 2014, read-out: NVS Agonist AC50, 2014 Release) [µM] | AC50 (Human PPARγ; ref Knudsen et al. 2011, read-out: NVS Agonist AC50, 2011 Release) [µM] | PPARγ antagonists: IC10, NCGC (PPARγ; AC10, ToxCast 2014 release) [µM] | AC50 (PPARγ) [µM] | IC50 (PPARγ; read-out: PPARγ antagonists: IC50, NCGC, gain AC50, ToxCast 2014 release) [µM] | AC50 (PPRE) [µM]
O=[N+]([O-])c1cc(C(F)(F)F)c(Cl)c([N+](=O)[O-])c1Nc1ncc(C(F)(F)F)cc1Cl [Fluazinam] | 7.2 | 7.2 | weak antagonists | 4.41 | PPARγ antagonist | 0.26 | 0.28 | 0.20 | 1.3 | 1.27 | –
Fc1ccc(Oc2ccnc3cc(Cl)cc(Cl)c23)cc1 [Quinoxyfen] | – | – | – | – | – | – | – | – | – | – | 2.8
CCC(C)(NC(=O)c1cc(Cl)c(C)c(Cl)c1)C(=O)CCl (stereo not drawn) [Zoxamide] | – | – | – | – | – | – | – | – | 0.4 | – | –
